In PubChem BioAssay (NCI):
Values joined by “and” are separate entries in the source; they are usually repeats but may differ in a detail not shown here. Identical values can stand only once.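 Assay format: 96-well plates, 48-hour exposure. Here, GI50 denotes the concentration required for 50% inhibition of growth. TGI denotes the concentration required for complete inhibition of growth.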

Experiments:
Experiment in all cases: NCI tumour cell line growth inhibition, 48 h
ACHN renal = tested on: ACHN renal
COLO 205 colon = tested on: COLO 205 colon
MDA-MB-231 breast = tested on: MDA-MB-231 breast
NCI-H226 lung = tested on: NCI-H226 lung
NCI-H522 lung = tested on: NCI-H522 lung
SK-MEL-2 melanoma = tested on: SK-MEL-2 melanoma
SK-MEL-28 melanoma = tested on: SK-MEL-28 melanoma
SR leukemia = tested on: SR leukemia
UACC-257 melanoma = tested on: UACC-257 melanoma
UACC-62 melanoma = tested on: UACC-62 melanoma

Row | Compound | GI50 (ACHN renal) | TGI (ACHN renal) | GI50 (COLO 205 colon) | TGI (COLO 205 colon) | GI50 (MDA-MB-231 breast) | GI50 (NCI-H226 lung) | GI50 (NCI-H522 lung) | TGI (NCI-H522 lung) | GI50 (SK-MEL-2 melanoma) | GI50 (SK-MEL-28 melanoma) | TGI (SK-MEL-28 melanoma) | GI50 (SR leukemia) | GI50 (UACC-257 melanoma) | TGI (UACC-257 melanoma) | GI50 (UACC-62 melanoma) | TGI (UACC-62 melanoma) | TGI (MDA-MB-231 breast) | TGI (NCI-H226 lung) | TGI (SK-MEL-2 melanoma) | TGI (SR leukemia)
1 | COC(=O)C12CC(NC(=O)c3csc([C@@H](C[C@H](C(C)C)N(C)C(=O)[C@@H](NC(=O)[C@H]4CCCCN4C)C(C)C)OC(C)=O)n3)(C1)C2 | 0.0174 µM | > 33.3 µM | 0.00141 µM | 0.0162 µM | 0.00434 µM and 0.00333 µM | 0.0181 µM and 0.0227 µM | 0.000185 µM and < 0.00333 µM | 0.000929 µM and < 0.00333 µM | 0.00197 µM | > 33.3 µM | > 33.3 µM | 0.000745 µM | > 33.3 µM | > 33.3 µM | 0.00313 µM and 0.00333 µM | > 33.3 µM | – | – | – | –
2 | C=C1C(=O)O[C@H]2[C@H]1CC/C(COC(=O)c1ccc(Br)cc1)=C\CC[C@@]1(C)O[C@@H]21 | 1.45 µM | 2.76 µM | 1.79 µM | 3.51 µM | 1.73 µM | 2.06 µM | 1.33 µM | 2.8 µM | 1.64 µM | 1.7 µM | 3.39 µM | 0.343 µM | 1.65 µM | 3.35 µM | 1.48 µM | 2.94 µM | 3.51 µM | 4.57 µM | 3.06 µM | 4.75 µM
3 | CCCCOc1nc2ccccc2cc1C1CNC(=O)c2ccccc2N1 (stereo not given) | 4.31 µM | 17.8 µM | 2.39 µM | 5.63 µM | 4.78 µM | 4.82 µM | 2.75 µM | 21.2 µM | 4.06 µM | 4.82 µM | 23.6 µM | 1.13 µM | 8.16 µM | > 100 µM | 1.95 µM | 12.3 µM | 26 µM | 19.2 µM | 29.6 µM | 12.5 µM
4 | NS(=O)(=O)c1ccc(N=Nc2cc3ccccc3c(C(=O)O)c2O)cc1 | – | 52.5 µM | – | > 100 µM | – | – | – | > 65.6 µM | – | – | > 100 µM | – | – | > 92.3 µM | – | 97 µM | 97 µM | > 100 µM | > 67.1 µM | > 84.6 µM
5 | Cn1cc(C2=C(c3cn(C)c4cc(Cl)ccc34)C(=O)NC2=O)c2ccccc21 | 0.181 µM | > 25 µM | 0.07 µM | 0.18 µM | 0.125 µM | 2.08 µM | 0.0723 µM | 0.345 µM | 0.212 µM | 3.59 µM | > 25 µM | 0.073 µM | 0.169 µM | > 25 µM | 0.0981 µM | > 25 µM | > 5.58 µM | > 25 µM | > 25 µM | 6.38 µM
6 | CCc1cc(Nc2nccc(-c3c(-c4ccc(OC)c(C(=O)Nc5c(F)cccc5F)c4)nc4ccccn34)n2)c(OC)cc1N1CCC(N2CCN(S(C)(=O)=O)CC2)CC1 | > 100 µM | > 100 µM | – | > 100 µM | 44.3 µM | > 69.3 µM | > 100 µM | > 100 µM | > 51.8 µM | > 100 µM | > 100 µM | > 100 µM | > 40.1 µM | > 100 µM | > 100 µM | > 100 µM | > 100 µM | > 100 µM | > 88.4 µM | > 100 µM
7 | Nc1cc2ccncc2c2ccccc12 | 4.44 µM | 58.5 µM | 6.89 µM | 20.8 µM | 16.4 µM | 5.75 µM | 5.49 µM | 26.6 µM | 13.6 µM | 16.6 µM | 33.6 µM | 8.56 µM | 13.6 µM | 29.7 µM | 13.5 µM | 38.7 µM | 96.1 µM | 73.6 µM | 30 µM | 47.9 µM
8 | CCCCCCCC(=O)O[C@H]1[C@H]2[C@@H](CC1(C)C)C(=O)[C@]13O[C@H]1C(=O)[C@]1(CO1)[C@]23C | – | 4.09 µM | 2.17 µM | 5.18 µM and 4.07 µM | – | 20.2 µM | – | 2.9 µM and 3.85 µM | 22.7 µM | 5.87 µM | 12.7 µM and 6.55 µM | – | 5.03 µM | 10.8 µM and 7.04 µM | 6.47 µM | 20.8 µM and 7.29 µM | 44.5 µM | 26.8 µM and 48.9 µM | 45.5 µM and 8.57 µM | > 38.7 µM
9 | Fc1ccc(-c2ncn(C3CCNCC3)c2-c2ccnc(Oc3ccc(Oc4ccccc4)cc3)n2)cc1 | 3.77 µM | 7.19 µM | 2.48 µM | 6.23 µM | 3.71 µM | 3.6 µM | 4.67 µM | 8.7 µM | 5.03 µM | 4.27 µM | 7.82 µM | 2.1 µM | 4.71 µM | 8.54 µM | 4.29 µM | 7.78 µM | 7.17 µM | 7.53 µM | 9.06 µM | 6.42 µM
10 | O=C1c2ccccc2-c2c1c1ccccc1c(=O)n2CCCNCCO | 0.195 µM | 0.906 µM | 0.63 µM | 3.75 µM | 1.5 µM | 1.45 µM | 0.689 µM | 4.33 µM | 2.84 µM | 1.24 µM | 2.95 µM | 0.086 µM | 1.25 µM | 4.39 µM | 0.304 µM | 1.74 µM | 6.55 µM | 5.38 µM | 6.15 µM | 0.618 µM
11 | CCN(CC)c1ccc(/C=C2/NC(=O)NC2=O)cc1 | 26.5 µM | > 100 µM | 4.63 µM | 23.6 µM | 28.7 µM | > 95.2 µM | 2.18 µM | 24.8 µM | 3.03 µM | 15.9 µM | > 100 µM | 0.605 µM | 4.01 µM | > 100 µM | 1.8 µM | 12.9 µM | > 100 µM | > 100 µM | > 31.4 µM | > 100 µM
12 | O=C(N/N=C\c1cc(Br)cc(Br)c1O)N/N=C/c1cc(Br)cc(Br)c1O | 4.06 µM | 13.5 µM | 3.92 µM | 14.6 µM | 4.18 µM | 2.23 µM | 3.08 µM | 13.8 µM | 11.2 µM | 2.79 µM | 16.1 µM | 1.13 µM | 2.48 µM | 8.92 µM | 1.8 µM | 10.2 µM | 17.5 µM | 9.82 µM | 24 µM | 26.7 µM
13 | O=C(Nc1ccc(I)cc1F)c1cc(F)ccc1O | 0.466 µM | > 100 µM | 3.88 µM | 15.6 µM | 0.513 µM | 0.985 µM | 0.304 µM | – | 0.367 µM | 0.353 µM | 1.91 µM | 0.413 µM | 0.392 µM | 2.89 µM | 0.259 µM | 0.853 µM | 4.69 µM | 5.66 µM | 1.92 µM | > 35.7 µM
14 | BrCC[N+]12CCCN1CCC2 | – | 14.3 µM | – | 10.5 µM | – | – | – | 1.71 µM | – | – | 26.5 µM | – | – | 37.2 µM | – | 20.5 µM | 34 µM | 60.8 µM | 48.4 µM | 6.8 µM
15 | CN1CCN(Cc2ccc(NC(=O)c3cncc(C#Cc4cncc5[nH]ncc45)c3)cc2C(F)(F)F)CC1 | 1.14 µM | 4.71 µM | 0.192 µM | 3.56 µM | 0.23 µM | 0.206 µM | 1.16 µM | 8 µM | 0.295 µM | 0.208 µM | 1.96 µM | 1.04 µM | 0.5 µM | 4.48 µM | 0.336 µM | 1.31 µM | 1.04 µM | 2.86 µM | 1.25 µM | 10.7 µM
16 | CC(=O)O[C@H]1Cc2c([nH]c3ccccc23)[C@@H](c2ccc(Cl)cc2)N1C(=O)CCNC(C)(C)C | 4.13 µM | 8.29 µM | 3.47 µM | 7.7 µM | 1.79 µM | 2.11 µM | 5.82 µM | 11 µM | 4.93 µM | 4.65 µM | 9.04 µM | 1.09 µM | 4.99 µM | 9.66 µM | 3.92 µM | 8.28 µM | 6.07 µM | 7.15 µM | 9.88 µM | 6.11 µM
17 | Clc1cc(-c2csc(Cl)c2)cs1 | – | > 100 µM | – | > 100 µM | – | – | – | > 100 µM | – | – | > 100 µM | – | – | > 100 µM | – | > 100 µM | > 100 µM | > 100 µM | > 100 µM | > 100 µM
18 | CCn1c(-c2nonc2N)nc2c(C#CC(C)(C)O)ncc(OCC3CCNCC3)c21 | 8.13 µM | > 25 µM | 4.84 µM | 15.2 µM | > 25 µM | > 15.2 µM | 9.07 µM | > 25 µM | 11.7 µM | 10 µM | > 25 µM | 8.08 µM | > 20.7 µM | > 25 µM | 8.02 µM | > 25 µM | > 25 µM | > 25 µM | > 25 µM | 24.4 µM
19 | CCN(Cc1cccc(C)c1)c1ccc(CO)c(Cl)c1 | 14.6 µM | 29.1 µM | 2.53 µM | 6.92 µM | 14.1 µM | 0.121 µM | 13.2 µM | 27.5 µM | 5.77 µM | 15.1 µM | 39.5 µM | 21.6 µM | 0.188 µM | 0.525 µM | 0.158 µM | 1.11 µM | 30.8 µM | 0.252 µM | 21.8 µM | > 62 µM
